Patent US11207331B2, “Agents, compositions and methods for enhancing neurological function” (University of Southern California, priority 2007, dated 2021)

Assays:
[1] = tested on: hippocampal neurons; assay: Total number of hippocampal neurons; format: cell-based, rat; settings: primary hippocampal neurons
Source text: Having determined that THP increases the expression of the cell proliferating markers, a determination was sought as to whether the increase in cell proliferation markers translated into an increase in neuronal number. […] As shown in FIGS. 6A-6C, THP increases neuron number as assessed in MuLV-GFP infected mouse neurons. The effect of THP on HT-22 cells proliferation was detected on MuLV infected cells.

[2] = tested on: PCNA and CDK1/cdc2; assay: PCNA and CDK1/cdc2 mRNA and protein in hippocampus (RT-PCR, Western blot); format: in vivo, mouse
Procedure: Protein was extracted from mouse hippocampus and separated by SDS gel as described in the literature. After transfer, PVDF membrane was plotted with monoclonal antibody for proliferating cell nuclear antigen (PCNA, 1:500, Zymed Laboratories Inc, San Francisco, Calif.) and then incubated with a horseradish peroxidase conjugated secondary antibody which is complementary to the primary antibody. Results were visualized by the ECL Plus Western Blotting Detection System (GE Healthcare, Amersham, Buckinghamshire, UK) followed by TMB development. Optical density was and analyzed by BioRad Quantity One software. The percent protein expression vs. control was normalized by loading control β-actin.
Brain samples derived from the same brains that underwent unbiased stereological analysis and GC/MC for THP detection were also analyzed by real-time RT-PCR and Western blot for expression of PCNA and CDK1 mRNA and protein.
To confirm the stereological analyses results, Western blot analyses of cell proliferation marker PCNA were carried out using samples derived from the same brains which underwent unbiased stereological analysis. PCNA, or Proliferating Cell Nuclear Antigen, is a protein that acts as a processivity factor for DNA polymerase delta subunit in eukaryotic cells and was induced in vitro by THP in cultured rat hippocampal progenitor cells.
Western blot analysis was performed to determine proliferating cell nuclear antigen (PCNA) expression levels in the hippocampus from the same animals that underwent behavior experiments.

[3] = tested on: BrdU positive cells per hippocampus; assay: Survival of BrdU labeled cells in hippocampus after behavioural testing; format: in vivo, mouse
Procedure: Mice of each genotype and age received a subcutaneous (s.c.) injection of THP at a concentration of 10 mg/kg body weight (BW), an optimal dose of THP-[…] based on our previous studies. One hour after THP injection, mice were intraperitoneally (i.p.) injected with 100 mg/kg BW bromodeoxyuridine (BrdU). Two experimental paradigms were used: 1) THP treatment for behavior and cell survival assessment, in which animals received a single shot of THP/vehicle, followed by a 7-day neurogenesis and migration phase, followed by a 5-day trace-conditioning test followed 9 days later by a 1-day memory test, and scarified 21 days after a single THP injection at which time FACS analysis of BrdU positive cells was performed to assess cell survival; 2).
Hippocampus was dissected from the fixed hemispheres from cell survival assessment experiment using consistent anatomical landmarks as criteria for dissection as described in the literature. The rostral ⅓ of the hippocampus lobe was removed to avoid the subventricular zone and rostral migratory stream proliferative pools. The extracted hippocampi were homogenized using Next advance 24 sample homogenizer (Next Advance Inc., NY) for 3 minutes on speed 7. This procedure lyses the plasma lemma while preserves the nuclear envelope intact. The nuclei sample was collected into a regular 1.5 mL microcentrifuge tube by washing the beads and tube 4 times using 200 μL of PBS, and then centrifuged for 10 minutes at 10,000 rpm. Once all of the nuclei were collected in a pellet, the supernatant was discarded. The pellet was then re-suspended in 600 μL of PBS plus 0.5% Triton x-100. The number of nuclear density was estimated by counting the propidium iodide (PI), a fluorescent molecule stoichiometrically binds to DNA by intercalating between the bases with no sequence preference, positive particles. Aliquots of 25 μl were re-suspended in 200 μL of a 0.2 M solution of boric acid, pH 9.0, and heated for 1 h at 75° C. for epitope retrieval. After washed in PBS, the nuclei were incubated for 24 hours at 4° C. with primary mouse monoclonal anti-BrdU antibody (1:100, Abcam, Ab12219) and subsequently with FITC-conjugated goat anti-mouse IgG secondary antibody (1:100 in PBS; Vector Labs, FI-2001). The remainder of cell suspension is diluted to 500 μL and sent for flow cytometry assay using Beckman FC 500 System with CXP Software. Propidium iodide (PI) cells were first gated on a histogram; the expressing cells were visualized on a forward/side scatter plot. PI cells were ‘back-gated’ on the forward/side scatter plot to eliminate debris prior to analysis; this also eliminated auto fluorescence of the sample. Gates were always set using dissociates with cell aliquots which lack of the first antibody, but which were incubated with second antibody and processed alongside the experimental procedure. PI-labeled cells in a fixed volume were gated, and the number of cells showing BrdU signal was analyzed. Data were expressed as total positive cells per hippocampus.
To determine whether cognitive performance was correlated with survival of neuroprogenitor cells, hippocampi from behavioral test animals were analyzed for total number of BrdU positive cells using fluorescence activated cell sorting (FACS). As BrdU was administered one hour post THP injection at the start of the behavioral experiment, FACS analysis detected the total number of surviving BrdU+ cells and thus can be used as a marker of neural progenitor cells that survived and integrated into the hippocampal neuronal network. In 6-months-old vehicle treated non-Tg mice, BrdU+ cell survival was 2003.6±229.5.
We sought to determine whether cell survival was directly attributable to THP exposure or whether cell survival was dependent on the training experience. Thus, the relationship between survival of BrdU positive cells and cognitive performance on the memory phase of the behavioral testing was analyzed. […]

CC(=O)[C@H]1CC[C@H]2[C@@H]3CC[C@H]4C[C@H](O)CC[C@]4(C)[C@H]3CC[C@]12C [THP, 3α-hydroxy-5α-pregnan-20-one]
increase in neuron number [1]: approximately 30% | PCNA and CDK1 protein expression in hippocampi ([2]; 10 mg/kg, Western blot, 3 months): greater PCNA and CDK1 protein expression in the hippocampi of 3×TgAD relative to the non-Tg mice | PCNA expression vs vehicle 21 day after injection ([2]; 3×TgAD mice, 6, 9 or 12-month-old): no significant difference | PCNA mRNA in hippocampus ([2]; 3×TgAD mice, real-time RT-PCR, 1-20 mg/kg): dose-dependent increase in PCNA mRNA | PCNA immunoblot vs vehicle control ([2]; 3×TgAD mice, three and six month, 24 hours after 10 mg/kg): increased | PCNA expression vs vehicle ([2]; non-Tg and 3×TgAD mice, 6- and 9-months, 24 hr): did not significantly affect PCNA expression | THP-induced proliferation (FACS BrdU) after 23 days of learning and memory ([3]; 3×TgAD mice, 3 and 6 month, declined with age thereafter): Significant THP-induced proliferation | fold promotion of BrdU+ cell survival ([3]; 3×TgAD mice, 6-months-old): greater than 2 fold | surviving BrdU+ cells per hippocampus (FACS) ([3]; 3×TgAD mice, 6-months-old, 21 days after 10 mg/kg): 1372.5±326.2 | surviving BrdU+ cells per hippocampus (FACS) ([3]; 3×TgAD mice, 9-months-old): 899.3±313.1 | BrdU cells ([3]; 3×TgAD mice, survived BrdU cells): 1088 | number of surviving cells generated 20 days prior to sacrifice ([3]; 3×TgAD mice, unbiased stereological analysis): near doubling in the number of surviving cells | BrdU+ cell survival vs vehicle ([3]; 12-months-old non-tg and 3×TgAD mice): no significant effect | BrdU positive cells, treatment vs vehicle ([3]; Non-Tg mice, 3, 6, 9, 12 month): did not show statistical significance between treatment and vehicle groups | BrdU+ cell number 21 days after THP administration ([3]; all ages): an increase in BrdU+ cell number was observed at all ages | surviving BrdU+ cells per hippocampus (FACS) ([3]; non-Tg mice, 6-months-old, 21 days after 10 mg/kg): 2772.2±534.9 | surviving BrdU+ cells per hippocampus (FACS) ([3]; non-Tg mice, 9-months-old): 2255.3±662.4
